Data taken from patent US11512280B2, “Method for culturing spore-forming bacteria, and method for producing useful substance” (priority 2016, dated 2022).

Legend:
Assay type in all cases: cell-based
[1] = system: Bacillus subtilis MBI-600; assay: Culture of Bacillus subtilis with sporulation-inhibiting and sporulation-accelerating substances, 45 hours (Example 2)
Protocol: (§1) Using a 500 ml Erlenmeyer flask (with baffles), each 100 ml of media listed in Table 1 was prepared and then autoclave sterilization was carried out. Note that glucose was separately sterilized and aseptically mixed in order to avoid Maillard reaction.
(§2) Test sections were set as described in Table 3. According to the conditions of each test section, the filter-sterilized aqueous solution of each sporulation-inhibiting substance was added aseptically to each medium. According to the conditions of each test section, one loopful of Bacillus subtilis MBI-600 was taken from a colony grown on a nutrient agar medium, inoculated, and then cultured with shaking at 30° C. and 150 rpm.
Sixteen (16) hours after the start of culture, each sporulation-accelerating substance was added according to the conditions of each test section, culture was continued. Forty-five (45) hours after the start of culture, culture was stopped.
(§3) Each of the thus obtained culture liquid was diluted 10-fold with sterile water, and then the bacterial cell concentration (vegetative cells and spores) and the sporulation rate (spore concentration/bacterial cell concentration) were measured using an optical microscope and a bacterial cell counter.

[2] = system: Bacillus subtilis MBI-600; assay: Culture of Bacillus subtilis with sporulation-inhibiting substance, 64 hours (Example 1); conditions: for Bacterial cell concentration / Spore concentration / Sporulation rate: 64 hours culture; for bacterial cell concentrations as the concentration of the substance increased: trend over tested concentrations
Protocol: Using a 500 ml Erlenmeyer flask (with baffles), each 100 ml of media listed in Table 1 was prepared and then autoclave sterilization was carried out. Glucose was separately sterilized and aseptically mixed in order to avoid Maillard reaction.
as §2, with “According” for “Test sections were set as described in Table 3. According”, “One” for “According to the conditions of each test section, one”, “rpm for 64 hours.” for “rpm.”
as §3

[3] = system: Bacillus thuringiensis NBRC 101235 strain; assay: Culture of Bacillus thuringiensis with sporulation-inhibiting substance, 40 hours (Example 3); conditions: for Bacterial cell concentration / Spore concentration / Sporulation rate: 40 hours culture
Protocol: as §1
as §2, with “According” for “Test sections were set as described in Table 3. According”, “thuringiensis NBRC 101235 strain” for “subtilis MBI-600”, “rpm for 40 hours.” for “rpm.”
as §3

[4] = sporulation-accelerating substance 3,000 ppm added at 16 hours, no inhibiting substance, 45 hours culture
[5] = 0.3 ppm plus ammonium lactate 3,000 ppm at 16 hours, 45 hours
[6] = 0.3 ppm, no accelerating substance, 45 hours
[7] = 0.5 ppm plus ammonium acetate 2,000 ppm at 16 hours, 45 hours
[8] = 0.5 ppm plus ammonium acetate 3,000 ppm at 16 hours, 45 hours
[9] = 0.5 ppm plus ammonium acetate 4,000 ppm at 16 hours, 45 hours
[10] = 0.5 ppm plus ammonium lactate 3,000 ppm at 16 hours, 45 hours
[11] = 0.5 ppm, no accelerating substance, 45 hours
[12] = 1.0 ppm, no accelerating substance, 45 hours
[13] = 2.0 ppm, no accelerating substance, 45 hours
[14] = 1.4 ppm plus decoyinine 200 ppm at 16 hours, 45 hours
[15] = 1.4 ppm, no accelerating substance, 45 hours

CC(O)C(=O)O.N (centres unmarked) [Ammonium lactate]
sporulation rate compared with test sections in which no accelerating substance had been added ([1]; ammonium lactate added, regardless of the lincomycin concentration): improvement was observed
spore productivity compared with test sections in which no such substance had been added ([1]; lincomycin 0.3 ppm and 0.5 ppm with ammonium lactate added): significantly higher
Bacterial cell concentration [1, 4]: 5.2e+09 mL⁻¹
Spore concentration [1, 4]: 4.8e+09 mL⁻¹
Sporulation rate [1, 4]: 91%

[H]/N=C(/N)N[C@H]1[C@H](O)[C@@H](O)[C@H](O[C@@H]2O[C@@H](C)[C@](O)(C=O)[C@H]2O[C@@H]2O[C@@H](CO)[C@H](O)[C@@H](O)[C@@H]2NC)[C@@H](N/C(N)=N\[H])[C@@H]1O [Streptomycin]
effect of inhibiting sporulation ([2]; 12.5 ppm): not observed
Bacterial cell concentration ([2]; 12.5 ppm added): 4.3e+09 mL⁻¹
Spore concentration ([2]; 12.5 ppm added): 4.3e+09 mL⁻¹
Sporulation rate ([2]; 12.5 ppm added): 100%
effect of inhibiting sporulation ([2]; 15.0 ppm): observed
Bacterial cell concentration ([2]; 15.0 ppm added): 5.5e+09 mL⁻¹
Spore concentration ([2]; 15.0 ppm added): 3e+09 mL⁻¹
Sporulation rate ([2]; 15.0 ppm added): 54%
bacterial cell concentrations as the concentration of the substance increased [2]: tended to increase

C=C1O[C@@](CO)(n2cnc3c(N)ncnc32)[C@H](O)[C@@H]1O [Decoyinine]
Sporulation rate ([1]; decoyinine added during culture in addition to chloramphenicol 1.4 ppm): improvement was observed

CCC[C@@H]1C[C@@H](C(=O)N[C@@H]([C@H]2O[C@H](SC)[C@H](O)[C@@H](O)[C@H]2O)[C@@H](C)O)N(C)C1 [Lincomycin]
effect of inhibiting sporulation ([2]; 0.1 ppm): not observed
Spore concentration ([2]; 0.1 ppm added): 4.7e+09 mL⁻¹
Sporulation rate ([2]; 0.1 ppm added): 100%
Bacterial cell concentration ([2]; 0.1 ppm added, carbon content 9.1 g/L): 4.7e+09 mL⁻¹
effect of inhibiting sporulation ([2]; 1 ppm): observed
Bacterial cell concentration ([2]; 1.0 ppm added): 7e+09 mL⁻¹
Sporulation rate ([2]; 1.0 ppm added): 0%
bacterial cell concentrations as the concentration of the substance increased [2]: tended to increase
effect of inhibiting sporulation ([1]; 0.3 ppm): not observed
Bacterial cell concentration [1, 5]: 5.6e+09 mL⁻¹
Spore concentration [1, 5]: 5.1e+09 mL⁻¹
Sporulation rate [1, 5]: 91%
Bacterial cell concentration [1, 6]: 3.3e+09 mL⁻¹
Spore concentration [1, 6]: 2.7e+09 mL⁻¹
Sporulation rate [1, 6]: 80%
effect of inhibiting sporulation ([1]; 0.5 ppm or more): observed
Bacterial cell concentration [1, 7]: 6.4e+09 mL⁻¹
Spore concentration [1, 7]: 4.1e+09 mL⁻¹
Sporulation rate [1, 7]: 64%
Bacterial cell concentration [1, 8]: 7.6e+09 mL⁻¹
Spore concentration [1, 8]: 5.4e+09 mL⁻¹
Sporulation rate [1, 8]: 71%
Bacterial cell concentration [1, 9]: 8.4e+09 mL⁻¹
Spore concentration [1, 9]: 6.1e+09 mL⁻¹
Sporulation rate [1, 9]: 72%
Bacterial cell concentration [1, 10]: 7.2e+09 mL⁻¹
Spore concentration [1, 10]: 5.7e+09 mL⁻¹
Sporulation rate [1, 10]: 79%
Bacterial cell concentration [1, 11]: 4.4e+09 mL⁻¹
Sporulation rate [1, 11]: 0%
Bacterial cell concentration [1, 12]: 5.1e+09 mL⁻¹
Sporulation rate [1, 12]: 0%
Bacterial cell concentration [1, 13]: 5.9e+09 mL⁻¹
Sporulation rate [1, 13]: 0%
bacterial cell concentrations as the concentration of the substance increased ([1]; trend over tested concentrations): tended to increase
Bacterial cell concentration ([3]; 5.0 ppm): 1.4e+09 mL⁻¹
Spore concentration ([3]; 5.0 ppm): 1.2e+09 mL⁻¹
Sporulation rate ([3]; 5.0 ppm): 86%
bacterial cell concentration and spore concentration ([3]; 10.0 ppm or lower): tended to increase
Bacterial cell concentration ([3]; 10.0 ppm): 1.4e+09 mL⁻¹
Spore concentration ([3]; 10.0 ppm): 1e+09 mL⁻¹
Sporulation rate ([3]; 10.0 ppm): 71%
effect of inhibiting sporulation ([3]; 12.5 ppm): confirmed
Bacterial cell concentration ([3]; 12.5 ppm): 9e+08 mL⁻¹
Spore concentration ([3]; 12.5 ppm): 1e+08 mL⁻¹
Sporulation rate ([3]; 12.5 ppm): 13%

CC(=O)O.N [Ammonium acetate]
bacterial cell concentration and sporulation rate as the amount of ammonium acetate added increased ([1]; lincomycin 0.5 ppm with ammonium acetate): increased
spore productivity compared with test sections in which no such substance had been added ([1]; lincomycin 0.5 ppm with ammonium acetate added): significantly higher
Bacterial cell concentration [1, 4]: 4.6e+09 mL⁻¹
Spore concentration [1, 4]: 4.2e+09 mL⁻¹
Sporulation rate [1, 4]: 91%

O=C(N[C@H](CO)[C@H](O)c1ccc([N+](=O)[O-])cc1)C(Cl)Cl [Chloramphenicol]
effect of inhibiting sporulation ([1]; 1.4 ppm): observed
Bacterial cell concentration [1, 14]: 5.4e+09 mL⁻¹
Spore concentration [1, 14]: 4.1e+09 mL⁻¹
Sporulation rate [1, 14]: 76%
Bacterial cell concentration [1, 15]: 5.4e+09 mL⁻¹
Sporulation rate [1, 15]: 0%
spore productivity compared with test sections in which no such substance had been added ([1]; chloramphenicol 1.4 ppm, both test sections (with and without decoyinine)): improved
bacterial cell concentration and spore concentration ([3]; 2.0 ppm): tended to increase
Bacterial cell concentration ([3]; 2.0 ppm): 1.6e+09 mL⁻¹
Spore concentration ([3]; 2.0 ppm): 1.3e+09 mL⁻¹
Sporulation rate ([3]; 2.0 ppm): 79%
the growth and the effect of inhibiting sporulation ([3]; 6.0 ppm): confirmed
Bacterial cell concentration ([3]; 6.0 ppm): 8e+06 mL⁻¹
Sporulation rate ([3]; 6.0 ppm): 0%
